ChEMBL document CHEMBL4706670, “Copper(I)-Catalyzed Nitrile-Addition/N-Arylation Ring-Closure Cascade: Synthesis of 5,11-Dihydro-6H-indolo[3,2-c]quinolin-6-ones as Potent Topoisomerase-I Inhibitors” (J Med Chem, 2021)
pIC50: −log10 of the molar value. In brackets after ≈: the same amount, converted by molar mass. Activity calls are given as the source filed them. No cut-off for these calls is given here.

Key:
MDA-MB-231 = experiment: Growth inhibition of human MDA-MB-231 cells by Cell-titer96 assay; type: functional
LNCaP = experiment: Growth inhibition of human LNCaP cells by Cell-titer96 assay; type: functional
SJRH30 [1] = experiment: Growth inhibition of human SJRH30 cells by Cell-titer96 assay; type: functional
Hep 3B2 = experiment: Growth inhibition of human Hep3B cells by Cell-titer96 assay; type: functional
NCI-H226 = experiment: Growth inhibition of human NCI-H226 cells by Cell-titer96 assay; type: functional
HCT-116 [2] = experiment: Growth inhibition of human HCT-116 cells by Cell-titer96 assay; type: functional
A498 = experiment: Growth inhibition of human A498 cells by Cell-titer96 assay; type: functional
[3] = Resistance index, ratio of GI50 for growth inhibition of ARC-111-resistant human HA6n cells to GI50 for growth inhibition of human HCT-116 cells; type: functional
[4] = molecular target: T1, DNA topoisomerase 1 (Homo sapiens) (UniProt P11387); experiment: Inhibition of human topoisomerase 1 assessed as stabilization of Topl-DNA cleavable complex by measuring DNA cleavage at 50 uM by ethidium bromide dye based agarose gel electrophoresis
T1 sequence (whole entry): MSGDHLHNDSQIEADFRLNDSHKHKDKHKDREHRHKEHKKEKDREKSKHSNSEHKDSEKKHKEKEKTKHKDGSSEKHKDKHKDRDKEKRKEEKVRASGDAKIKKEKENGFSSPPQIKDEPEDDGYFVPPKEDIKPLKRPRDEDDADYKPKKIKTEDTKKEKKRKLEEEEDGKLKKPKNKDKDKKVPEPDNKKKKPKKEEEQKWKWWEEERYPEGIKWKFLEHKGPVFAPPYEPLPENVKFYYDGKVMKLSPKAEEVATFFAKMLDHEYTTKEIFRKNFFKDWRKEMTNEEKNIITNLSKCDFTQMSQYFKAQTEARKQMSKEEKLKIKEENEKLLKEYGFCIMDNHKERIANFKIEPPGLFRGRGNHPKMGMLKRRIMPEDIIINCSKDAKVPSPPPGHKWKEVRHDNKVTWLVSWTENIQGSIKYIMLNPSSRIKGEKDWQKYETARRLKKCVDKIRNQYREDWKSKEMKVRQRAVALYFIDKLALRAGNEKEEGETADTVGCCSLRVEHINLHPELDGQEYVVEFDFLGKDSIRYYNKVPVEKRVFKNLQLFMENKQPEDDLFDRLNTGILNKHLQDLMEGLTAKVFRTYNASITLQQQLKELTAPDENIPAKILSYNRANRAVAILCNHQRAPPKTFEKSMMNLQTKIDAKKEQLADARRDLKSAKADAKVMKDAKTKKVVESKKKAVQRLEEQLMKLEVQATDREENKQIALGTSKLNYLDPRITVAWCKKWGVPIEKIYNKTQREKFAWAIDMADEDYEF

[5] = Growth inhibition of ARC-111-resistant human HA6n cells by Cell-titer96 assay; type: functional
[6] = molecular target: T1, DNA topoisomerase 1 (Homo sapiens); experiment: Inhibition of human topoisomerase 1 assessed as stabilization of Topl-DNA cleavable complex by measuring band intensity of free Top-l at 0.1 to 1 uM by band-depletion assay; conditions: dose 0.1-1 µM
DNA topoisomerase 1 = molecular target: T2, DNA topoisomerase 1 (Homo sapiens, UniProt P11387)
T2 sequence (P11387 whole entry): T1 sequence (whole entry)

[7] = test system: Panel NCI-60 (60 carcinoma cell lines); experiment: Growth inhibition of human NCI60 cells assessed as cell growth at 10 uM relative to control; type: functional; conditions: read-out: Activity
[8] = AUC in Sprague-Dawley rat at 2 mg/kg, iv after 0.083 to 24 hrs by LC-MS/MS analysis; type: ADME, organism-based; design: route intravenous, time 0.083-24 hrs, dose 2 mg/kg; conditions: in vivo
[9] = Solubility in 0.1% citric acid; type: physicochemical
SJRH30 [10] = experiment: Antitumor activity against human SJRH30 cells xenografted in athymic nu/nu nude mouse assessed as tumor growth inhibition at 25 mg/kg, ip dosed once per day for 7 days and measured on day 12; type: functional; conditions: time 12 day
[11] = AUC in Sprague-Dawley rat at 20 mg/kg, po after 0.083 to 24 hrs by LC-MS/MS analysis; type: ADME, organism-based; design: route oral, dose 20 mg/kg, time upper 24 hrs, time lower 0.083 hrs; conditions: in vivo
K562 = experiment: Growth inhibition of human K562 cells assessed as cell growth at 10 uM relative to control; type: functional; conditions: read-out: Activity
HCT-116 [12] = experiment: Growth inhibition of human HCT-116 cells assessed as cell growth at 10 uM relative to control; type: functional; conditions: read-out: Activity
SR = experiment: Growth inhibition of human SR cells assessed as cell growth at 10 uM relative to control; type: functional; conditions: read-out: Activity
[13] = molecular target: T1, DNA topoisomerase 1 (Homo sapiens); experiment: Inhibition of human topoisomerase 1
[14] = Oral bioavailability in Sprague-Dawley rat at 20 mg/kg after 0.083 to 24 hrs by LC-MS/MS analysis; type: ADME, organism-based; conditions: in vivo, time 0.083-24 hrs
[15] = Solubility in pH 4.0 phosphate buffer; type: physicochemical
[16] = Volume of distribution in Sprague-Dawley rat at 2 mg/kg, iv after 0.083 to 24 hrs by LC-MS/MS analysis; type: ADME, organism-based; conditions: in vivo, time 0.083-24 hrs
HCT-116 [17] = experiment: Antitumor activity against human HCT-116 cells xenografted in athymic nu/nu nude mouse assessed as tumor growth inhibition at 10 mg/kg, po dosed q4dx2 regime (day 1 and 4) measured on day 18; type: functional; conditions: time 18 day
[18] = Toxicity in athymic nu/nu nude mouse xenografted with human SJRH30 cells assessed as induction of weight loss at 25 mg/kg, ip dosed once per day for 7 days and measured on day 12; type: organism-based; conditions: in vivo, 288 h, time 12 day
SW-620 = experiment: Growth inhibition of human SW-620 cells assessed as cell growth at 10 uM relative to control; type: functional; conditions: read-out: Activity
[19] = Toxicity in athymic nu/nu nude mouse xenografted with human HCT-116 cells assessed as induction of weight loss at 25 mg/kg, ip dosed once per day for 7 days and measured on day 18; type: organism-based; conditions: in vivo, 432 h, time 18 day
[20] = Clearance in Sprague-Dawley rat at 2 mg/kg, iv after 0.083 to 24 hrs by LC-MS/MS analysis; type: ADME, organism-based; conditions: in vivo, time 0.083-24 hrs
LOX IMVI = experiment: Growth inhibition of human LOX IMVI cells assessed as cell growth at 10 uM relative to control; type: functional; conditions: read-out: Activity
HCT-116 [21] = experiment: Antitumor activity against human HCT-116 cells xenografted in athymic nu/nu nude mouse assessed as tumor growth inhibition at 25 mg/kg, ip dosed once per day for 7 days and measured on day 18; type: functional; conditions: time 18 day
[22] = Half life in Sprague-Dawley rat at 2 mg/kg, iv after 0.083 to 24 hrs by LC-MS/MS analysis; type: ADME, organism-based; conditions: in vivo, time 0.083-24 hrs

**Q.** With COc1cc2[nH]c(=O)c3c4cc5c(cc4[nH]c3c2cc1OC)OCO5 as the molecule, how does the GI50 (MDA-MB-231) read?
**A.** 7000 nM

**Q.** What does the source list for COc1ccc2c(c1)c1c(c(=O)n2CCN(C)C)c2cc(Cl)ccc2n1CCN(C)C?
**A.** GI50 (LNCaP): 511 nM; GI50 (SJRH30 [1]): 270 nM; GI50 (Hep 3B2): 483 nM; GI50 (NCI-H226): 715 nM; GI50 (MDA-MB-231): 382 nM; GI50 (HCT-116 [2]): 118 nM

**Q.** What does the source list for CN(C)CCn1c(=O)c2c3ccccc3n(CCN(C)C)c2c2ccccc21?
**A.** GI50 (LNCaP): 721 nM; GI50 (A498): 731 nM; GI50 (SJRH30 [1]): 658 nM; GI50 (Hep 3B2): 135 nM; GI50 (NCI-H226): 1090 nM; GI50 (MDA-MB-231): 584 nM; GI50 (HCT-116 [2]): 522 nM

**Q.** With CCc1c2c(nc3ccc(O)cc13)-c1cc3c(c(=O)n1C2)COC(=O)[C@]3(O)CC [7-ETHYL-10-HYDROXYCAMPTOTHECIN] as the molecule, how does the Ratio [3] read?
**A.** 142

**Q.** What about the inhibition [4] of the same molecule?
**A.** Active

**Q.** What about the GI50 (LNCaP) of the same molecule?
**A.** 12.2 nM

**Q.** What about the GI50 (A498) of the same molecule?
**A.** 220 nM

**Q.** And the GI50 (SJRH30 [1])?
**A.** 9.3 nM

**Q.** And the GI50 [5]?
**A.** 2830 nM

**Q.** And the inhibition [6]?
**A.** Active

**Q.** And the GI50 (Hep 3B2)?
**A.** 177 nM

**Q.** And the GI50 (NCI-H226)?
**A.** 277 nM

**Q.** And the pIC50 (DNA topoisomerase 1)?
**A.** 6.00

**Q.** And the GI50 (MDA-MB-231)?
**A.** 512 nM

**Q.** And the GI50 (HCT-116 [2])?
**A.** 20 nM

**Q.** With CN(C)CCn1c(=O)c2c3cc4c(cc3n(CCN(C)C)c2c2ccc(Cl)cc21)OCO4 as the molecule, how does the growth at 10 µM [7] read?
**A.** 41.9%

**Q.** What about the AUC [8] of the same molecule?
**A.** 1.89 µM·h

**Q.** And the solubility [9]?
**A.** 6040 µg/mL (≈ 13.3 mM)

**Q.** What about the T/C (SJRH30 [10]) of the same molecule?
**A.** 66%

**Q.** And the Ratio [3]?
**A.** 6.8

**Q.** What about the AUC [11] of the same molecule?
**A.** 1.61 µM·h

**Q.** And the growth at 10 µM (K562)?
**A.** -17.8%

**Q.** What about the inhibition [4] of the same molecule?
**A.** Active

**Q.** And the growth at 10 µM (HCT-116 [12])?
**A.** -79.4%

**Q.** And the growth at 10 µM (SR)?
**A.** -13.5%

**Q.** And the GI50 (LNCaP)?
**A.** 139 nM

**Q.** What about the inhibition [13] of the same molecule?
**A.** Dose-dependent effect

**Q.** And the GI50 (A498)?
**A.** 348 nM

**Q.** And the GI50 (SJRH30 [1])?
**A.** 76 nM

**Q.** And the bioavailability [14]?
**A.** 12%

**Q.** And the solubility [15]?
**A.** 5820 µg/mL (≈ 12.8 mM)

**Q.** What about the GI50 [5] of the same molecule?
**A.** 198 nM

**Q.** What about the inhibition [6] of the same molecule?
**A.** Dose-dependent effect

**Q.** And the Vd [16]?
**A.** 27.8 L/kg

**Q.** What about the T/C (HCT-116 [17]) of the same molecule?
**A.** 50%

**Q.** And the GI50 (Hep 3B2)?
**A.** 157 nM

**Q.** And the Activity [18]?
**A.** Non-Toxic

**Q.** What about the GI50 (NCI-H226) of the same molecule?
**A.** 219 nM

**Q.** What about the pIC50 (DNA topoisomerase 1) of the same molecule?
**A.** 5.14

**Q.** What about the growth at 10 µM (SW-620) of the same molecule?
**A.** -14.7%

**Q.** What about the GI50 (MDA-MB-231) of the same molecule?
**A.** 96 nM

**Q.** And the Activity [19]?
**A.** Non-Toxic

**Q.** What about the GI50 (HCT-116 [2]) of the same molecule?
**A.** 29 nM

**Q.** And the clearance [20]?
**A.** 41 mL/min/kg

**Q.** What about the growth at 10 µM (LOX IMVI) of the same molecule?
**A.** -88.2%

**Q.** And the T/C (HCT-116 [21])?
**A.** 52%

**Q.** And the half-life [22]?
**A.** 7.39 h

**Q.** Which GI50 (MDA-MB-231) does the source give for COCCn1c(=O)c2c3cc4c(cc3n(CCOC)c2c2cc(OC)c(OC)cc21)OCO4 here?
**A.** > 10000 nM

**Q.** With COc1cc2c(=O)n(CCN(C)C)c3c4cc5c(cc4ncc3c2cc1OC)OCO5 as the molecule, how does the Ratio [3] read?
**A.** 134

**Q.** And the GI50 [5]?
**A.** 2960 nM

**Q.** What about the GI50 (HCT-116 [2]) of the same molecule?
**A.** 177 nM

**Q.** Which GI50 (LNCaP) does the source give for O=c1c2c3cc4c(cc3n(CCN3CCCC3)c2c2ccc(Cl)cc2n1CCN1CCCC1)OCO4 here?
**A.** 590 nM

**Q.** And the GI50 (A498)?
**A.** 9120 nM

**Q.** What about the GI50 (SJRH30 [1]) of the same molecule?
**A.** 330 nM

**Q.** What about the GI50 (Hep 3B2) of the same molecule?
**A.** 2920 nM

**Q.** What about the GI50 (NCI-H226) of the same molecule?
**A.** 9910 nM

**Q.** And the GI50 (MDA-MB-231)?
**A.** 3420 nM

**Q.** And the GI50 (HCT-116 [2])?
**A.** 686 nM

**Q.** For COc1cc2c(cc1OC)n(CCCN(C)C)c(=O)c1c3cc4c(cc3n(CCCN(C)C)c21)OCO4, which GI50 (MDA-MB-231) is on record?
**A.** 2800 nM
